Test results from PMC4690453 (Bioorganic & medicinal chemistry letters, 2015).

tested on: NO production in BV2 microglial cell cultures treated with lipopolysachharide (LPS); experiment: Inhibition of NO production in LPS-treated BV2 microglial cell cultures; assay type: cell-based; conditions: BV2 cells

SMILES | anti-inflammatory potency compared to DFB (in words)
O=C(Nc1nc2ccccc2[nH]1)[C@H]1C[C@@H]1c1cccc(F)c1 (racemic) [Compound 1f, N-(1H-benzo[d]imidazol-2-yl)-2-(3-fluorophenyl)cyclopropane-1-carboxamide] | superior potency to DFB
O=C(Nc1ccccc1F)[C@H]1C[C@@H]1c1cccc(F)c1 (racemic) [Compound 1a, N-(2-fluorophenyl)-2-(3-fluorophenyl) cyclopropane-1-carboxamide] | decreased anti-inflammatory potency
O=C(Nc1ccc(F)cc1)[C@H]1C[C@@H]1c1cccc(F)c1 (racemic) [Compound 1b] | decreased anti-inflammatory potency
O=C(Nc1nc2ccccc2s1)[C@H]1C[C@@H]1c1cccc(F)c1 (racemic) [Compound 1e, N-(Benzo[d]thiazol-2-yl)-2-(3-fluorophenyl)cyclopropane-1-carboxamide] | superior potency to DFB
COc1cc(Br)ccc1NC(=O)[C@H]1C[C@@H]1c1cccc(Cl)c1 (racemic) [Compound 2d, N-(4-Bromo-2-methoxyphenyl)-2-(3-chlorophenyl)cyclopropane-1-carboxamide] | decreased potency
O=C(Nc1nc2ccccc2[nH]1)[C@H]1C[C@@H]1c1cccc(Cl)c1 (racemic) [Compound 2f] | improved potency
O=C(Nc1ccccc1Cl)[C@H]1C[C@@H]1c1cccc(F)c1 (racemic) [Compound 1c] | decreased anti-inflammatory potency

tested on: BV2 microglial cells; experiment: Cell viability assay; assay type: cell-based; conditions: not given

SMILES | BV2 cell toxicity / viability (in words)
O=C(N[C@H]1C[C@@H]1c1cccc(F)c1)c1cccc(F)c1 (racemic) [Compound 3a, 3-fluoro-N-(2-(3-fluorophenyl)cyclopropyl)benzamide] | excellent cell viability
O=C(N[C@H]1C[C@@H]1c1cccc(F)c1)c1ccc([N+](=O)[O-])cc1 (racemic) [Compound 3d] | significant BV2 cell toxicity
COc1cc(Br)ccc1NC(=O)[C@H]1C[C@@H]1c1cccc(F)c1 (racemic) [Compound 1d, N-(4-Bromo-2-methoxyphenyl)-2-(3-fluorophenyl)cyclopropane-1-carboxamide] | excellent BV2 microglial cell viability
O=C(N[C@H]1C[C@@H]1c1cccc(F)c1)c1cccc([N+](=O)[O-])c1 (racemic) [Compound 3c] | significant BV2 cell toxicity
